The source of these data is article PMC8968952, “Modulation of ERCC1-XPF Heterodimerization Inhibition via Structural Modification of Small Molecule Inhibitor Side-Chains” (Frontiers in Oncology, 2022).

Bounds are passed on as bounds.

One series concerns the target CYP3A4-M (Homo sapiens, UniProt P08684). On the set-up: method as in PMID 31369707. Particulars: read-out: Inhibition of cytochrome P450 (IC50) CYP3A4-M; cited from earlier work.
Series [1] has as its target T1, ERCC1-XPF heterodimer in A549 cells (Homo sapiens, UniProt Q92889).
T1 construct: endogenous in cells; host or cells: A549
T1 sequence (Q92889 1-916): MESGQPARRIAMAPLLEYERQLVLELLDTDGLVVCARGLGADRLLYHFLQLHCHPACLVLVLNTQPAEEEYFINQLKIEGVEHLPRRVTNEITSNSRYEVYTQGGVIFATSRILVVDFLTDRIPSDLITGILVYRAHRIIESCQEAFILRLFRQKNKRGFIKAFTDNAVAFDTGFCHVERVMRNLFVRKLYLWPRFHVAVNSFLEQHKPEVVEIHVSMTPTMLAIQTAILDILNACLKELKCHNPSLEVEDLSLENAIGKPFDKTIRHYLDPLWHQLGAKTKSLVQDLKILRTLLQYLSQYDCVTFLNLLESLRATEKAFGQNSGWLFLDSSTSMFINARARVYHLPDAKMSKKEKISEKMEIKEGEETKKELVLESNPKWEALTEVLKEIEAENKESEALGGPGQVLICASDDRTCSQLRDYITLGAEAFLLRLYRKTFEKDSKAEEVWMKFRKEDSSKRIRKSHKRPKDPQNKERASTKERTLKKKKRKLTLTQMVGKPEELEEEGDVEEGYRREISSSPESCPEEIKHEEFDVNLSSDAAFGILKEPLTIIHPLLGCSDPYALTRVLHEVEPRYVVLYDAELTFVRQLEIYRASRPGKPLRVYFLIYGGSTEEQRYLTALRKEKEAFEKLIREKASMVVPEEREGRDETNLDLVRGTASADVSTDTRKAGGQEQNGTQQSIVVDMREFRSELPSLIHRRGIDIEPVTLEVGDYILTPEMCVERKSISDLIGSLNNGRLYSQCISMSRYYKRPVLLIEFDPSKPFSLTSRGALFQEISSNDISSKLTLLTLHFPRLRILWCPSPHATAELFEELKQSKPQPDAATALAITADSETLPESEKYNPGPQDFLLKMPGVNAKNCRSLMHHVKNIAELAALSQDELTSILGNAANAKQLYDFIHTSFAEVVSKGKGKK
On the set-up: method as in PMID 33399940. Particulars: A549 cells treated with 20 μM cisplatin and 1 μM inhibitor; cited from earlier work.

The next series addresses CYP2C9 (Homo sapiens, UniProt P11712). On the set-up: method as in PMID 31369707. As to conditions: read-out: Inhibition of cytochrome P450 (IC50) CYP2C9; cited from earlier work.
In series [2] the test system is HCT-116 cells. Set-up: method as in PMID 31369707. As to conditions: 1.0 μM compound, 4 J/m^2 UVC; cited from earlier work.
Series [3] has as its system HCT-116 cells. On the set-up: method as in PMID 31369707. As to conditions: 2 μM, after 24 hours; cited from earlier work.
Series [4] relates to HCT-116 cells. On the set-up: method as in PMID 31369707. As to conditions: 1 μM compound, 50 μM cyclophosphamide; cited from earlier work.
For a further series, the target named is CYP2D6 (Homo sapiens, UniProt P10635). Set-up: method as in PMID 31369707. Particulars: read-out: Inhibition of cytochrome P450 (IC50) CYP2D6; cited from earlier work.
On the set-up of series [5]: method as in PMID 31369707. Particulars: cited from earlier work.
Another series deals with CYP2C19 (Homo sapiens, UniProt P33261). On the set-up: method as in PMID 31369707. Particulars: read-out: Inhibition of cytochrome P450 (IC50) CYP2C19; cited from earlier work.
On the set-up of series [6]: method as in PMID 31369707. Particulars: cited from earlier work. The source holds these as a separate data set.
Series [7] relates to ERCC1 or XPF levels in A549 cells. Nature of the series: Western blot of ERCC1 and XPF protein levels (PLA control). Type of series: cell-based, human. Particulars: 2 µM, 24 h. On the procedure:
page 1: Supplementary Material […] Supplementary Figure 1. ERCC1-XPF mediated cleavage of the stem-loop DNA substrate, in which the FAM signal is quenched, releases the fluorescently tagged octanucleotide. Triplicate measurements of the control (DMSO) and the effect of 10 μM of compounds 4 and 6 on the incision activity is shown. 2 PLA Control Experiments Supplementary Figure 2. A549 cells were seeded in 6-well culture dishes (Thermo Fishes Scientific) at a density of 0.3 X 10^6 cells/well in a final volume of 3 ml. […] The chambers were incubated for 24 h and then washed with PBS and the cells were solubilized with RIPA buffer in the presence of protease inhibitor cocktail (Cell Signaling Technology) plus 2 mM EDTA. […] EpiGentek), XPF (LS- C173159, 1:1000; LifeSpan BioSciences, Seattle, WA) and B-Actin (sc-47778, 1:1000; Santa Cruz) primary antibodies followed by secondary anti-mouse or anti-rabbit secondary HRP-conjugated secondary antibodies. ECL chemiluminescent substrate (Promega) was used to detect the proteins. 3 Cytotoxicity Analysis Supplementary Figure 3. Cytotoxicity assay using colony forming assay 4 HCT-116 Derived XPF Knockout Cells For CRISPR deletion of XPF from HCT-116 cells, the pSpCas9(BB)-2A-GFP (pX458) vector (Addgene plasmid # 48138) was used. The short guide sequence to target XPF exon one was: 5'- [NT] 3' and target XPF exon eight was: 5'- [NT]3'. […]
For orientation: In western blotting, separated proteins are transferred to a membrane and probed.

CYP2D6, sequence (P10635 whole entry): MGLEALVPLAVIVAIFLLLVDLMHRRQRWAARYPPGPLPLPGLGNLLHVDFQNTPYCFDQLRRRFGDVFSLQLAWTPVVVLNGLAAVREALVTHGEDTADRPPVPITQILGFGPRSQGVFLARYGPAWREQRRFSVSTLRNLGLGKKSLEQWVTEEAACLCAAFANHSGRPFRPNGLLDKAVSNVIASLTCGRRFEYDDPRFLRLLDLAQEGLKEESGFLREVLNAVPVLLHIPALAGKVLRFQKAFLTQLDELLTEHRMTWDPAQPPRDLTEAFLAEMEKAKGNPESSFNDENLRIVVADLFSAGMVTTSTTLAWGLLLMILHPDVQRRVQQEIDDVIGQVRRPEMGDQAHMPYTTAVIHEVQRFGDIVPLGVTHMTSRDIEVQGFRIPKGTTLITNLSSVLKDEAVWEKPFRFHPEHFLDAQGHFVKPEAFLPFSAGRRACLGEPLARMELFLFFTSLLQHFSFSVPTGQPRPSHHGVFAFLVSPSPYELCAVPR
CYP2C9, sequence (P11712 whole entry): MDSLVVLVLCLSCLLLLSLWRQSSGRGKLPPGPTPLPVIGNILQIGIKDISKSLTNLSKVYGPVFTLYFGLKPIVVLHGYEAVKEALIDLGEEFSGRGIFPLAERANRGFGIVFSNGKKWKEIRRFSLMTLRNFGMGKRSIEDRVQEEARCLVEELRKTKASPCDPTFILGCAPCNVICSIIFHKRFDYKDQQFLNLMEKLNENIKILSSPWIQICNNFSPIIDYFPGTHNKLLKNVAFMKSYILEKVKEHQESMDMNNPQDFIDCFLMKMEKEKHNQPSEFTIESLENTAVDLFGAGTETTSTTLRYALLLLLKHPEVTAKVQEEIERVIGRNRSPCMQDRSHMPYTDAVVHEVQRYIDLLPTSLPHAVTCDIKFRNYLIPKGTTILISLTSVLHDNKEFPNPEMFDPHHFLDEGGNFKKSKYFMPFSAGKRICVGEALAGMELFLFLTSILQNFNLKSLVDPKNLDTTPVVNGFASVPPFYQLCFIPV
CYP3A4-M, sequence (P08684 whole entry): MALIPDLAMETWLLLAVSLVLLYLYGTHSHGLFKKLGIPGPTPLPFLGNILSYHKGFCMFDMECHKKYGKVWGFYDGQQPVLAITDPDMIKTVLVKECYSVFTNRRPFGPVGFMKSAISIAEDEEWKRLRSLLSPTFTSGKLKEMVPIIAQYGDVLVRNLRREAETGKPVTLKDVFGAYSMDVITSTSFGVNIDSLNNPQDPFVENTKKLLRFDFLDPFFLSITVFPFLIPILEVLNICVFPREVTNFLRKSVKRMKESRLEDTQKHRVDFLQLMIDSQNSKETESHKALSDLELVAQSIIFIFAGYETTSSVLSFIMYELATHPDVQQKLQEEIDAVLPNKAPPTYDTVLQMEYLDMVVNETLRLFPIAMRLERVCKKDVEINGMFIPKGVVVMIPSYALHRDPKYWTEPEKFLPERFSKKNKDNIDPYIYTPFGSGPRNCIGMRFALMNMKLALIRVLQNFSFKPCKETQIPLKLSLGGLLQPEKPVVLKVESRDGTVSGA
CYP2C19, sequence (P33261 whole entry): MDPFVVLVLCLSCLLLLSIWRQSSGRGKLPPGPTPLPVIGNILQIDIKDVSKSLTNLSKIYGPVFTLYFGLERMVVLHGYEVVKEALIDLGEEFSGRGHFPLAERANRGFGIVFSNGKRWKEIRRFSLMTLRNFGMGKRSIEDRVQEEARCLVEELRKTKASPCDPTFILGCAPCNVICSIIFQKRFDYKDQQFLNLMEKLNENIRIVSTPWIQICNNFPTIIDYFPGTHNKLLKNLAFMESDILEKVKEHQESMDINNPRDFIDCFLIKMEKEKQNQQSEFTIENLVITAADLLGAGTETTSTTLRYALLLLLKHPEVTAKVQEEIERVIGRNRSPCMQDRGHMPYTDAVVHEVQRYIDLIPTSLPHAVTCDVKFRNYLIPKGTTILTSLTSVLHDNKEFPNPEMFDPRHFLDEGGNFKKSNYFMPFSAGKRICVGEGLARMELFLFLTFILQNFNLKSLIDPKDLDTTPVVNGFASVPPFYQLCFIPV

The term IC50 denotes the concentration that gives 50% inhibition. With `COc1ccc2nc3cc(Cl)ccc3c(Nc3ccc(O)c(CN4CCN(CCN(C)C)CC4)c3)c2c1` [Compound 4], the IC50 on CYP3A4-M is 37.1 µM; at CYP2C9 it was greater than 50 µM; at CYP2D6, 16 µM; on CYP2C19, greater than 50 µM. Further, the “PLA: inhibition of the interaction between ERCC1 and XPF (in words)” value in series [1] is “clear inhibition of the interaction between ERCC1 and XPF”. Besides, the “cell survival after UVC” value in the series on HCT-116 cells [2] is ~ 50%. Further, the CPD removal in the series with HCT-116 cells [3] was 60%. Moreover, in the series with HCT-116 cells [4], the “cell survival with cyclophosphamide” value is “about 75%”. The “Metabolic stability in human liver microsomes (clearance)” value in series [5] is given as 44.0 (mL/min/kg). The “Metabolic stability in cryopreserved human hepatocytes (clearance)” value in series [6] is reported as 48.8 mL/min/kg. Further, in [6], the “Metabolic stability in cryopreserved human hepatocytes T1/2” value was 1.32 h. In addition, the “levels of ERCC1 or XPF vs untreated cells” value in series [7] was “no significant differences”.
